{"source": "patent US12121545B2", "about": "“Composition for a fecal-derived sterilized postbiotic in anti-aging and neurotherapeutic applications” (priority 2022, dated 2024)", "key": {"C. elegans adult animals": {"system": "C. elegans adult animals", "assay": "Lifespan of C. elegans adult animals (Kaplan-Meier survival)", "type": "in vivo"}, "Caenorhabditis elegans": {"system": "Caenorhabditis elegans", "assay": "Oxidative stress tolerance after paraquat exposure", "type": "in vivo", "details": "10 mM, positive control; over 24 hours post-exposure; negative control (DMSO) declined 41%", "description": "Still referring to FIG. 1, composition 100 may be configured to improve oxidative stress tolerance, preserve mitochondrial function, support energy production, enhance cellular defense mechanisms against oxidative stress, stimulate endogenous antioxidants and enzymes, reduce oxidative stress and/or mitochondrial oxidative stress, improve mitochondrial function, improve healthspan, improve longevity, improve autophagy, increase autophagy, or the like. Oxidative stress and healthspan disclosed herein are further described below. For the purposes of this disclosure, “oxidative stress” is a physiological state characterized by an imbalance between the production of reactive oxygen species and the body's antioxidant defenses. In a non-limiting example, reactive oxygen species (ROS) can be generated endogenously as byproducts of cellular metabolism; for instance in the mitochondria. In another non-limiting example, ROS can be generated exogenously in the result of environmental pollutants, radiation, cigarette smoking, alcohol, certain foods, and drugs. In a healthy human, the body's antioxidant defenses can neutralize these molecules before they cause significant cellular damage. However, when their production overwhelms the body's capacity to neutralize and eliminate them, they can cause widespread cellular damage. […]"}, "[1]": {"details": "50 μM, * p<0.05 vs negative control"}, "[2]": {"details": "100 μM, * p<0.05 vs negative control"}}, "data": [{"molecule": "CO[C@H]1C[C@@H]2CC[C@@H](C)[C@@](O)(O2)C(=O)C(=O)N2CCCC[C@H]2C(=O)O[C@H]([C@H](C)C[C@@H]2CC[C@@H](O)[C@H](OC)C2)CC(=O)[C@H](C)/C=C(\\C)[C@@H](O)[C@@H](OC)C(=O)[C@H](C)C[C@H](C)/C=C/C=C/C=C/1C", "note": "[Rapamycin, rapamycin]", "values": [{"measurement": "age at 25% Mortality", "setting": "C. elegans adult animals; [1]", "result": "24.6* days"}, {"measurement": "age at 50% Mortality (median lifespan)", "setting": "C. elegans adult animals; [1]", "result": "29.5* days"}, {"measurement": "age at 75% Mortality", "setting": "C. elegans adult animals; [1]", "result": "32.8* days"}, {"measurement": "age at 90% Mortality", "setting": "C. elegans adult animals; [1]", "result": "35.7* days"}, {"measurement": "age at 95% Mortality", "setting": "C. elegans adult animals; [1]", "result": "36.1* days"}]}, {"molecule": "Oc1ccc(C=Cc2cc(O)cc(O)c2)cc1", "note": "[Resveratrol, resveratrol]", "values": [{"measurement": "age at 90% Mortality", "setting": "C. elegans adult animals; 100 μM", "result": 30.2, "unit": "days"}, {"measurement": "age at 25% Mortality", "setting": "C. elegans adult animals; [2]", "result": "22.4* days"}, {"measurement": "age at 50% Mortality (median lifespan)", "setting": "C. elegans adult animals; [2]", "result": "25.5* days"}, {"measurement": "age at 75% Mortality", "setting": "C. elegans adult animals; [2]", "result": "28.3* days"}, {"measurement": "age at 95% Mortality", "setting": "C. elegans adult animals; [2]", "result": "32.3* days"}]}, {"molecule": "O=C1O[C@H]([C@@H](O)CO)C(O)=C1O", "note": "[vitamin C]", "values": [{"measurement": "average decline after paraquat-induced oxidative stress", "setting": "Caenorhabditis elegans", "result": 25, "unit": "%"}]}]}
